Assay results from patent US8148391B2 (Cephalon, Inc., priority 2006, dated 2012).
Read-outs that look alike come from different tables or passages of the source.

Tests used:
[1] = biological target: T1, c-Met (cytoplasmic domain) (Homo sapiens, UniProt P08581); experiment: c-Met Kinase Assay (same methods as for ALK, with modifications); assay type: biochemical
T1 construct: 10 ng/mL c-Met (cytoplasmic domain, Invitrogen Corporation #PV3143); purchased Invitrogen Corporation PV3143
Procedure, shortened: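 This plate-based kinase format uses immobilized phospholipase C-γ as substrate, phosphorylated by c-Met cytoplasmic domain (10 ng/mL) at 37° C for 15 minutes.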

[2] = biological target: T2, baculovirus-expressed ALK (Homo sapiens, UniProt Q9UM73); experiment: ALK Kinase Assay (ELISA-type, time-resolved fluorescence); assay type: biochemical
T2 construct: host or cells: baculovirus expression system
Procedure, shortened: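 Substrate coating: phospholipase C-γ, 10 μg/mL in TBS. Kinase step: 30 ng/ml ALK, 15 min, 37° C. Detection and analysis: Eu-N1 PT66 antibody, with IC50 fitted as a sigmoidal variable-slope dose-response curve.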

[3] = 1 μM ATP (Km level), read-out: cMet Activity (c-Met Kinase Inhibition, IC50)
[4] = 1 μM ATP (Km level), read-out: ALK Activity (ALK Kinase Inhibition, IC50)
[5] = c-Met kinase inhibition, 1 μM ATP (Km level), read-out: cMet Activity
[6] = ALK kinase inhibition, 1 μM ATP (Km level), read-out: ALK Activity
[7] = c-Met kinase inhibition, 1 μM ATP, read-out: cMet Activity
[8] = ALK kinase inhibition, 1 μM ATP, read-out: ALK Activity
[9] = 1 μM ATP (Km level), 10 ng/mL c-Met, read-out: cMet Activity (c-Met kinase inhibition, IC50 class)
[10] = 1 μM ATP (Km level), 30 ng/ml ALK, 37° C., 15 minutes, read-out: ALK Activity (ALK kinase inhibition, IC50 class)

T2 sequence (Q9UM73 19-1620): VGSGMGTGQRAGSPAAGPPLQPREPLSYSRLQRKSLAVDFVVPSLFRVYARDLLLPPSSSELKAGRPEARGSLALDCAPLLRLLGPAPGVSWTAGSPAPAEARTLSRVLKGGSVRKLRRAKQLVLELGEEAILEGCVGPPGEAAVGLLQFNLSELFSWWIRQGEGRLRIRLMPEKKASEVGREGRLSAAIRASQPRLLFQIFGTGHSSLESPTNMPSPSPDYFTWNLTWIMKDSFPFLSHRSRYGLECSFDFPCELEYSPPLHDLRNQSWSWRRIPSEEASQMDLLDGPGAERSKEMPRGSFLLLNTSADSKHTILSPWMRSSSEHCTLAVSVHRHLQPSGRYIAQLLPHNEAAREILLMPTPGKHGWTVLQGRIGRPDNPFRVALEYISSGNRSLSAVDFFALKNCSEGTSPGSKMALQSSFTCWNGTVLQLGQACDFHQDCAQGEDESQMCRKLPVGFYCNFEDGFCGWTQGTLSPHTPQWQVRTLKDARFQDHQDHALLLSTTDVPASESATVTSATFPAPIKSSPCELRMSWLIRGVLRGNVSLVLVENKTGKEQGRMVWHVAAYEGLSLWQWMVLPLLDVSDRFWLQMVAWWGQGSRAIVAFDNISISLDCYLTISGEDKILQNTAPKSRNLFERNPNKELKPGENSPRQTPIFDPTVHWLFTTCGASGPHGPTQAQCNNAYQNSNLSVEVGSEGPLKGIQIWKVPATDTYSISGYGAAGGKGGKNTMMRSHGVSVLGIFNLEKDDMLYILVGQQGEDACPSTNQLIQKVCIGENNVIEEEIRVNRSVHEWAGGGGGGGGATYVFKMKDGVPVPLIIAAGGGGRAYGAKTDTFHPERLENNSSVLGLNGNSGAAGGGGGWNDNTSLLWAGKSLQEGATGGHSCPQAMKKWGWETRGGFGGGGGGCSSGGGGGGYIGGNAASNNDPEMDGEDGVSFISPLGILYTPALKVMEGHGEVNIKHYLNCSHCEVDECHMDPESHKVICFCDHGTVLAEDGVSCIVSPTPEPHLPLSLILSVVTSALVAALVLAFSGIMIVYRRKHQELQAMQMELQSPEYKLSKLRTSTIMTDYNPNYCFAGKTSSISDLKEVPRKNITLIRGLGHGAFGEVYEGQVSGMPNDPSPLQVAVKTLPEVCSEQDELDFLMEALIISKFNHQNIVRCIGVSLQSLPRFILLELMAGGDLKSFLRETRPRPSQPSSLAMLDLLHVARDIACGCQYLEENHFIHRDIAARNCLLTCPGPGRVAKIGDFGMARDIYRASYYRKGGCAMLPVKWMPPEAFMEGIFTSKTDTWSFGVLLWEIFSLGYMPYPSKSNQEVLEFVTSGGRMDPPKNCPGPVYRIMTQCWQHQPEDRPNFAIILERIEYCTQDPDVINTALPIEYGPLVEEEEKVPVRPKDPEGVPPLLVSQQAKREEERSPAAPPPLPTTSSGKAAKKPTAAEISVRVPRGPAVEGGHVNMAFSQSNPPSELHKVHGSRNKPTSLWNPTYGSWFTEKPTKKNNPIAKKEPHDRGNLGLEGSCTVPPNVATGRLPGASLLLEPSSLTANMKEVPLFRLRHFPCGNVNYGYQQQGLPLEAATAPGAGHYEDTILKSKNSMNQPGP
T1 sequence (P08581 956-1390 limits assumed): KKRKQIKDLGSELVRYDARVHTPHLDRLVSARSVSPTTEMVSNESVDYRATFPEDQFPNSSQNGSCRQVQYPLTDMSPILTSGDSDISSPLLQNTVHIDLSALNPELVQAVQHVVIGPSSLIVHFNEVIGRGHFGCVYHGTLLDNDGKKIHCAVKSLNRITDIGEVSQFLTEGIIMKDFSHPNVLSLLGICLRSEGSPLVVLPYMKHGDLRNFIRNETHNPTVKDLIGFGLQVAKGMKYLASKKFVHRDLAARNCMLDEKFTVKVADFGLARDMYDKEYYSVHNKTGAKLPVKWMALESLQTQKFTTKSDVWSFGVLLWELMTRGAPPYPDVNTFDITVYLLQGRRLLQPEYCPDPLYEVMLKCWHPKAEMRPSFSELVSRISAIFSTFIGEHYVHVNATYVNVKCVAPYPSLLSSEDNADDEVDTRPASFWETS

## COc1cc2c(cc1Nc1ncc(Cl)c(Nc3ccc(Cl)cc3S(=O)(=O)N(C)C)n1)CCN(CCO)CC2 [Example 840, 5-Chloro-2-{5-chloro-2-[3-(2-hydroxy-ethyl)-8-methoxy-2,3,4,5-tetrahydro-1H-benzo[d]azepin-7-ylamino]-pyrimidin-4-ylamino}-N,N-dimethyl-benzenesulfonamide]
[1]; [3]
  IC50: > 10000 nM
[2]; [4]
  IC50: < 100 nM

## CNC(=O)c1ccccc1Nc1nc(Nc2ccc3c(c2)CN(CCO)CCS3)ncc1Cl [Example 528, 2-{5-Chloro-2-[8-(hydroxyl-ethyl)-6,7,8,9-tetrahydro-5-thia-8-aza-benzoylcyclohepten-2-ylamino]-pyrimidin-4-ylamino}-N-methyl-benzamide]
[1]; [3]
  IC50: < 100 nM
[2]; [4]
  IC50: < 100 nM

## COc1cc(N2CCOCC2)ccc1Nc1nc(Nc2ccc3c(c2OC)CCCC(=O)N3C)ncc1Cl [Example 117, 7-[5-Chloro-4-(2-methoxy-4-morpholin-4-yl-phenylamino)-pyrimidin-2-ylamino]-6-methoxy-1-methyl-1,3,4,5-tetrahydro-benzo[b]azepin-2-one]
[1]; [5]
  IC50: > 10000 nM
[2]; [6]
  IC50: < 100 nM

## CS(=O)(=O)N[C@@H]1CCCC[C@H]1Nc1nc(Nc2cc(F)cc3c2OCCNC3=O)ncc1Cl [Example 1683, N-{(1R,2R)-2-[5-Chloro-2-(7-fluoro-5-oxo-2,3,4,5-tetrahydro-benzo[f][1,4]oxazepin-9-ylamino)-pyrimidin-4-ylamino]-cyclohexyl}-methanesulfonamide]
[1]; [7]
  IC50: > 10000 nM
[2]; [8]
  IC50: 100 to 1000 nM

## CNS(=O)(=O)c1ccccc1Nc1nc(Nc2ccc3c(c2)C2CC3CN(S(C)(=O)=O)C2)ncc1Cl (stereo not shown) [Example 163, 2-[5-Chloro-2-(10-methanesulfonyl-10-aza-tricyclo[6.3.1.0*2,7*]dodeca-2,4,6-trien-4-ylamino)-pyrimidin-4-ylamino]-N-methyl-benzenesulfonamide]
[1]; [5]
  IC50: 1000 to 10000 nM
[2]; [6]
  IC50: < 100 nM

## CNC(=O)c1cccc(F)c1Nc1nc(Nc2ccc3c(c2)CNC(=O)CCN3C(C)=O)ncc1Cl [Example 1224, 2-[2-(1-Acetyl-4-oxo-1,2,3,4,5,6-hexahydro-benzo[b][1,5]diazocin-8-ylamino)-5-chloro-pyrimidin-4-ylamino]-3-fluoro-N-methyl-benzamide]
[1]; [9]
  IC50: < 100 nM
[2]; [10]
  IC50: < 100 nM

## CCN1CCc2ccc(OC)c(Nc3ncc(Cl)c(Nc4ccc(N5CCOCC5)cc4OC)n3)c2CC1=O [Example 1133, 9-[5-Chloro-4-(2-methoxy-4-morpholin-4-yl-phenylamino)-pyrimidin-2-ylamino]-3-ethyl-8-methoxy-1,3,4,5-tetrahydro-benzo[d]azepin-2-one]
[1]; [9]
  IC50: > 10000 nM
[2]; [10]
  IC50: 1000 to 10000 nM

## CNS(=O)(=O)c1ccccc1Nc1nc(Nc2ccc3c(c2)COCCN3C)ncc1Cl [Example 17, 2-[5-Chloro-2-(1-methyl-1,2,3,5-tetrahydro-benzo[e][1,4]oxazepin-7-ylamino)-pyrimidin-4-ylamino]-N-methyl-benzenesulfonamide]
[1]; [5]
  IC50: < 100 nM
[2]; [6]
  IC50: < 100 nM

## COc1c(Nc2ncc(Cl)c(Nc3ccccc3S(=O)(=O)C(C)C)n2)ccc2c1CCCC(NCCO)C2 (stereo not shown) [Example 961, 2-(2-{5-Chloro-4-[2-(propane-2-sulfonyl)-phenylamino]-pyrimidin-2-ylamino}-1-methoxy-6,7,8,9-tetrahydro-5H-benzocyclohepten-6-ylamino)-ethanol]
[1]; [3]
  IC50: > 10000 nM
[2]; [4]
  IC50: < 100 nM

## CCN1C(=O)C(N)CCc2c1ccc(Nc1ncc(Cl)c(N[C@@H]3CCCC[C@H]3NS(C)(=O)=O)n1)c2OC (stereo partly drawn) [Example 1338, N-{(1R,2R)-2-[2-(3-Amino-1-ethyl-6-methoxy-2-oxo-2,3,4,5-tetrahydro-1H-benzo[b]azepin-7-ylamino)-5-chloro-pyrimidin-4-ylamino]-cyclohexyl}-methanesulfonamide]
[1]; [9]
  IC50: > 10000 nM
[2]; [10]
  IC50: 100 to 1000 nM

## COc1cc2c(cc1Nc1ncc(Cl)c(Nc3ccc(N4CCC(C(=O)O)CC4)cc3-n3cccn3)n1)CCN(CC(=O)N(C)C)CC2 [Example 630, 1-{4-[5-Chloro-2-(3-dimethylcarbamoylmethyl-8-methoxy-2,3,4,5-tetrahydro-1H-benzo[d]azepin-7-ylamino)-pyrimidin-4-ylamino]-3-pyrazol-1-yl-phenyl}-piperidine-4-carboxylic acid]
[1]; [3]
  IC50: > 10000 nM
[2]; [4]
  IC50: < 100 nM

## COc1cc2c(cc1Nc1ncc(Cl)c(Nc3ccccc3S(=O)(=O)N(C)C)n1)CCC(N1CCN(C)CC1)CC2 (stereo not shown) [Example 1099, 2-{5-Chloro-2-[3-methoxy-7-(4-methyl-piperazin-1-yl)-6,7,8,9-tetrahydro-5H-benzocyclohepten-2-ylamino]-pyrimidin-4-ylamino}-N,N-dimethyl-benzenesulfonamide]
[1]; [9]
  IC50: 1000 to 10000 nM
[2]; [10]
  IC50: < 100 nM

## CN1C(=O)CCC(C)(C)c2cc(Nc3ncc(Cl)c(Nc4ccccc4-n4cccn4)n3)ccc21 [Example 1323, 7-[5-Chloro-4-(2-pyrazol-1-yl-phenylamino)-pyrimidin-2-ylamino]-1,5,5-trimethyl-1,3,4,5-tetrahydro-benzo[b]azepin-2-one]
[1]; [9]
  IC50: 100 to 1000 nM
[2]; [10]
  IC50: < 100 nM

## CS(=O)(=O)N[C@@H]1CCCC[C@H]1Nc1nc(Nc2ccc3c(c2)CCC(N2CCOCC2)CC3)ncc1Cl (stereo partly drawn) [Example 179, N-{(1R,2R)-2-[5-Chloro-2-(7-morpholin-4-yl-6,7,8,9-tetrahydro-5H-benzocyclohepten-2-ylamino)-pyrimidin-4-ylamino]-cyclohexyl}-methanesulfonamide]
[1]; [5]
  IC50: 100 to 1000 nM
[2]; [6]
  IC50: < 100 nM

## COc1cc2c(cc1Nc1ncc(Cl)c(Nc3ccccc3S(=O)(=O)N3CCCC3)n1)CCN(Cc1ncco1)CC2 [Example 1191, 5-Chloro-N*2*-(8-methoxy-3-oxazol-2-ylmethyl-2,3,4,5-tetrahydro-1H-benzo[d]azepin-7-yl)-N*4*-[2-(pyrrolidine-1-sulfonyl)-phenyl]-pyrimidine-2,4-diamine]
[1]; [9]
  IC50: 1000 to 10000 nM
[2]; [10]
  IC50: < 100 nM

## CN1C(=O)OCCc2cc(Nc3ncc(Cl)c(Nc4ccccc4-c4cc[nH]n4)n3)ccc21 [Example 1767, 2-{5-Chloro-4-[2-(1H-pyrazol-3-yl)-phenylamino]-pyrimidin-2-ylamino}-5-methyl-8,9-dihydro-5H-7-oxa-5-aza-benzocyclohepten-6-one]
[1]; [7]
  IC50: 1000 to 10000 nM
[2]; [8]
  IC50: > 10000 nM

## CCN1C(=O)OCCc2ccc(Nc3ncc(Cl)c(Nc4c(F)cccc4C(=O)NC)n3)cc21 [Example 1882, 2-[5-Chloro-2-(5-ethyl-6-oxo-5,6,8,9-tetrahydro-7-oxa-5-aza-benzocyclohepten-3-ylamino)-pyrimidin-4-ylamino]-3-fluoro-N-methyl-benzamide]
[1]; [5]
  IC50: < 100 nM
[2]; [6]
  IC50: < 100 nM

## COc1cc2c(cc1Nc1ncc(F)c(Nc3ccc(N4CCN(C)CC4)cc3OC)n1)CCN(CC(=O)N(C)C)CC2 [Example 793, 2-(7-{5-Fluoro-4-[2-methoxy-4-(4-methyl-piperazin-1-yl)-phenylamino]-pyrimidin-2-ylamino}-8-methoxy-1,2,4,5-tetrahydro-benzo[d]azepin-3-yl)-N,N-dimethyl-acetamide]
[1]; [3]
  IC50: > 10000 nM
[2]; [4]
  IC50: < 100 nM

## CNC(=O)c1scc(C)c1Nc1nc(Nc2ccc3c(c2)CCN(CCOC)CC3)ncc1Cl [Example 1362, 3-{5-Chloro-2-[3-(2-methoxy-ethyl)-2,3,4,5-tetrahydro-1H-benzo[d]azepin-7-ylamino]-pyrimidin-4-ylamino}-4-methyl-thiophene-2-carboxylic acid methylamide]
[1]; [9]
  IC50: < 100 nM
[2]; [10]
  IC50: 100 to 1000 nM

## CNC(=O)c1ccccc1Nc1nc(Nc2ccc3c(c2)N(C)CCN(S(C)(=O)=O)C3)ncc1Cl [Example 483, 2-[5-Chloro-2-(4-methanesulfonyl-1-methyl-2,3,4,5-tetrahydro-1H-benzo[e][1,4]diazepin-8-ylamino)-pyrimidin-4-ylamino]-N-methyl-benzamide]
[1]; [5]
  IC50: < 100 nM
[2]; [6]
  IC50: < 100 nM

## COc1cc2c(cc1Nc1ncc(Cl)c(Nc3ccc(C(N)=O)cc3OC)n1)CCN(CCS(C)(=O)=O)CC2 [Example 1161, 4-{5-Chloro-2-[3-(2-methanesulfonyl-ethyl)-8-methoxy-2,3,4,5-tetrahydro-1H-benzo[d]azepin-7-ylamino]-pyrimidin-4-ylamino}-3-methoxy-benzamide]
[1]; [9]
  IC50: > 10000 nM
[2]; [10]
  IC50: < 100 nM

## CCNC(=O)c1ccccc1Nc1nc(Nc2cc3c(cc2OC)CCN(CC(=O)N(C)C)CC3)ncc1Cl [Example 262, 2-[5-Chloro-2-(3-dimethylcarbamoylmethyl-8-methoxy-2,3,4,5-tetrahydro-1H-benzo[d]azepin-7-ylamino)-pyrimidin-4-ylamino]-N-ethyl-benzamide]
[1]; [5]
  IC50: 1000 to 10000 nM
[2]; [6]
  IC50: < 100 nM

## CNC(=O)c1ccccc1Nc1nc(Nc2c(OC)ccc3c2CCC(N2CCOCC2)CC3)ncc1Cl (stereo not shown) [Example 1073, 2-[5-Chloro-2-(2-methoxy-7-morpholin-4-yl-6,7,8,9-tetrahydro-5H-benzocyclohepten-1-ylamino)-pyrimidin-4-ylamino]-N-methyl-benzamide]
[1]; [9]
  IC50: > 10000 nM
[2]; [10]
  IC50: 100 to 1000 nM
